Source: the NIST ThermoML archive (doi:10.1021/acs.jced.5b00049)
± gives the expanded uncertainty stated by the source.

Conditions: Liquid, Buoyancy - hydrostatic balance with magnetic suspension - one sinker

CCCCCCCCCCCCCC [tetradecane]
Conditions | mass density [kg/m3]
313.13 K, 16040 kPa | 760.35 ± 0.24
313.15 K, 14050 kPa | 759.03 ± 0.24
313.15 K, 18060 kPa | 761.65 ± 0.24
313.17 K, 19040 kPa | 762.28 ± 0.24
313.19 K, 10020 kPa | 756.25 ± 0.24
313.23 K, 12040 kPa | 757.62 ± 0.24
323.14 K, 14050 kPa | 752.38 ± 0.24
323.18 K, 12040 kPa | 750.93 ± 0.24
323.18 K, 16070 kPa | 753.74 ± 0.24
323.23 K, 18060 kPa | 755.07 ± 0.24
323.25 K, 19080 kPa | 755.76 ± 0.24
323.26 K, 10000 kPa | 749.44 ± 0.24
333.13 K, 18050 kPa | 748.61 ± 0.24
333.13 K, 19060 kPa | 749.31 ± 0.24
333.14 K, 10050 kPa | 742.64 ± 0.23
333.16 K, 12040 kPa | 744.14 ± 0.24
333.16 K, 16060 kPa | 747.18 ± 0.24
333.28 K, 14060 kPa | 745.66 ± 0.24
343.31 K, 16030 kPa | 740.68 ± 0.23
343.31 K, 19040 kPa | 742.92 ± 0.23
343.32 K, 10040 kPa | 736 ± 0.23
343.32 K, 12050 kPa | 737.59 ± 0.23
343.34 K, 18020 kPa | 742.16 ± 0.23
343.35 K, 14070 kPa | 739.16 ± 0.23
353.48 K, 16030 kPa | 734.17 ± 0.23
353.5 K, 18010 kPa | 735.7 ± 0.23
353.51 K, 19050 kPa | 736.41 ± 0.23
353.58 K, 12050 kPa | 730.83 ± 0.23
353.63 K, 10020 kPa | 729.05 ± 0.23
353.66 K, 14040 kPa | 732.42 ± 0.23
